Structures are written as SMILES.

What all share (assay): Post-emergence efficacy, glasshouse, evaluated after 13 days
Assay type in all cases: in vivo

One test deals with Lolium perenne (LOLPE). The following applies: post-emergence application, 500 g/Ha, evaluated after 13 days; for pest or weed control at 500 g/ha: Lolium perenne, 312 h, read-out: Control of weed species LOLPE (100=total damage to plant; 0=no damage to plant). As to the method:
(§1) Seeds of a variety of test species were sown in standard soil in pots. After cultivation for 14 days (post-emergence) under controlled conditions in a glasshouse (at 24/16° C., day/night; 14 hours light; 65% humidity), the plants were sprayed with an aqueous spray solution derived from the dissolution of the technical active ingredient formula (I) in a small amount of acetone and a special solvent and emulsifier mixture referred to as IF50 (11.12% Emulsogen EL360 TM+44.44% N-methylpyrrolidone+44.44% Dowanol DPM glycol ether), to create a 50 g/l solution which was then diluted to required concentration using 0.25% or 1% Empicol ESC70 (Sodium lauryl ether sulphate)+1% ammonium sulphate as diluent.
(§2) The test plants were then grown in a glasshouse under controlled conditions (at 24/16° C., day/night; 14 hours light; 65% humidity) and watered twice daily. After 13 days the test was evaluated (100=total damage to plant; 0=no damage to plant).
(§3) Ipomoea hederacea (IPOHE), Euphorbia heterophylla (EPHHL), Chenopodium album (CHEAL), Amaranthus palmeri (AMAPA), Lolium perenne (LOLPE), Digitaria sanguinalis (DIGSA), Eleusine indica (ELEIN), Echinochloa crus-galli (ECHCG), Setaria faberi (SETFA)

The test system of a further test is Setaria faberi (SETFA). Conditions: post-emergence application, 500 g/Ha, evaluated after 13 days; for pest or weed control at 500 g/ha: Setaria faberi, 312 h, read-out: Control of weed species SETFA (100=total damage to plant; 0=no damage to plant). As to the method: as §1, §2, §3
The subject of test [1] is Amaranthus palmeri (AMAPA). Conditions: post-emergence application, 500 g/Ha, evaluated after 13 days; for pest or weed control at 500 g/ha: Amaranthus palmeri, 312 h, read-out: Control of weed species AMAPA (100=total damage to plant; 0=no damage to plant). As to the method:
as §1, §2, §3

The subject of another test is Eleusine indica (ELEIN). Conditions: post-emergence application, 500 g/Ha, evaluated after 13 days; for pest or weed control at 500 g/ha: Eleusine indica, 312 h, read-out: Control of weed species ELEIN (100=total damage to plant; 0=no damage to plant). As to the method:
as §1, §2, §3

Test [2] deals with Chenopodium album (CHEAL). The following applies: post-emergence application, 500 g/Ha, evaluated after 13 days; for pest or weed control at 500 g/ha: Chenopodium album, 312 h, read-out: Control of weed species CHEAL (100=total damage to plant; 0=no damage to plant). As to the method: as §1, §2, §3
The subject of test [3] is Echinochloa crus-galli (ECHCG). Conditions: post-emergence application, 500 g/Ha, evaluated after 13 days; for pest or weed control at 500 g/ha: Echinochloa crus-galli, 312 h, read-out: Control of weed species ECHCG (100=total damage to plant; 0=no damage to plant). As to the method: as §1, §2, §3
For test [4], the system named is Euphorbia heterophylla (EPHHL). The following applies: post-emergence application, 500 g/Ha, evaluated after 13 days; for pest or weed control at 500 g/ha: Euphorbia heterophylla, 312 h, read-out: Control of weed species EPHHL (100=total damage to plant; 0=no damage to plant). As to the method:
as §1, §2, §3

The subject of test [5] is Digitaria sanguinalis (DIGSA). The following applies: post-emergence application, 500 g/Ha, evaluated after 13 days; for pest or weed control at 500 g/ha: Digitaria sanguinalis, 312 h, read-out: Control of weed species DIGSA (100=total damage to plant; 0=no damage to plant). As to the method:
as §1, §2, §3

In test [6] the test system is Ipomoea hederacea (IPOHE). The following applies: post-emergence application, 500 g/Ha, evaluated after 13 days; for pest or weed control at 500 g/ha: Ipomoea hederacea, 312 h, read-out: Control of weed species IPOHE (100=total damage to plant; 0=no damage to plant). As to the method: as §1, §2, §3

Take `O=C(Nc1ccccc1)c1cc[n+](CCS(=O)(=O)[O-])nc1` [Compound A7]: the pest or weed control at 500 g/ha with Lolium perenne (LOLPE) was 20%; in the test with Setaria faberi (SETFA) it was 30%; in test [1] it was 100%; with Eleusine indica (ELEIN), 40%; in test [2], 90%; in test [3] it was 20%. The pest or weed control at 500 g/ha stood at 60% in [4], 20% in test [5] and 10% in test [6].

As for `CN(C(=O)c1cc[n+](CCS(=O)(=O)O)nc1)c1ccccc1` [Compound A8], the pest or weed control at 500 g/ha in the test on Lolium perenne (LOLPE) is 0%; in the test with Setaria faberi (SETFA) it was 20%; in [1] it was 100%; with Eleusine indica (ELEIN), 40%; in [2] it was 90%; in [3], 10%. For the same compound, the pest or weed control at 500 g/ha is 80% in test [4], 20% in test [5] and 30% in test [6].

In the case of `CN(C)C(=O)c1cc[n+](CCC(=O)O)nc1` [Compound A10], the pest or weed control at 500 g/ha in the test with Lolium perenne (LOLPE) worked out at 10%; with Setaria faberi (SETFA), 90%; in test [1], 100%; in the test with Eleusine indica (ELEIN) it was 80%; in test [2], 100%; in test [3], 70%. Further, the figures for the pest or weed control at 500 g/ha in test [4], in test [5] and in [6] were 100%, 90% and 60%, respectively.

As for `CNC(=O)c1cc[n+](CCCS(=O)(=O)[O-])nc1` [Compound A11], the pest or weed control at 500 g/ha in the test with Lolium perenne (LOLPE) turned out to be 30%; in the test on Setaria faberi (SETFA), 20%; in [1], 40%; in the test with Eleusine indica (ELEIN) it was 10%; in [2] it was 80%; in test [3], 70%. The pest or weed control at 500 g/ha in test [4] is 70%; in test [5], 70%; in test [6] it was 30%.

Regarding `CNC(=O)c1cc[n+](CC[C@H](N)C(=O)O)nc1.O=C(O)C(F)(F)F.O=C([O-])C(F)(F)F` [Compound A12], in the test on Lolium perenne (LOLPE), the “Control of weed species LOLPE (100=total damage to plant; 0=no damage to plant)” value worked out at 40. Besides, the “Control of weed species SETFA (100=total damage to plant; 0=no damage to plant)” value in the test on Setaria faberi (SETFA) was determined as 60. In addition, in test [1], the “Control of weed species AMAPA (100=total damage to plant; 0=no damage to plant)” value is 90. For the same compound, the “Control of weed species ELEIN (100=total damage to plant; 0=no damage to plant)” value with Eleusine indica (ELEIN) is given as 60. Moreover, in test [2], the “Control of weed species CHEAL (100=total damage to plant; 0=no damage to plant)” value turned out to be 60. Besides, the “Control of weed species ECHCG (100=total damage to plant; 0=no damage to plant)” value in test [3] is 80. The “Control of weed species EPHHL (100=total damage to plant; 0=no damage to plant)” value in test [4] came to 70. Also, the “Control of weed species DIGSA (100=total damage to plant; 0=no damage to plant)” value in test [5] is recorded as 90. Besides, the “Control of weed species IPOHE (100=total damage to plant; 0=no damage to plant)” value in test [6] is 40.

Take `CC(C)(C)NC(=O)c1cc[n+](CCS(=O)(=O)O)nc1` [Compound A13]: the pest or weed control at 500 g/ha is 60% with Lolium perenne (LOLPE); 80% with Setaria faberi (SETFA); 100% in test [1]; 70% in the test with Eleusine indica (ELEIN); 100% in test [2]; 60% in test [3]. Moreover, the values for the pest or weed control at 500 g/ha in [4], in [5] and in test [6] were 70%, 80% and 60%, respectively.

As to `CC(C)N(C(=O)c1cc[n+](CCS(=O)(=O)O)nc1)C(C)C` [Compound A14], the pest or weed control at 500 g/ha in the test with Lolium perenne (LOLPE) amounted to 0%; in the test on Setaria faberi (SETFA), 10%; in test [1] it was 100%; in the test on Eleusine indica (ELEIN), 10%; in test [2], 70%; in test [3], 10%. The values for the pest or weed control at 500 g/ha in test [4], in test [5] and in test [6] were 50%, 30% and 30%, respectively.

In the case of `CC(C)(C)NC(=O)c1cc[n+](CCC(=O)O)nc1` [Compound A15], the pest or weed control at 500 g/ha in the test with Lolium perenne (LOLPE) turned out to be 70%; in the test on Setaria faberi (SETFA) it was 100%; in test [1] it was 100%; in the test on Eleusine indica (ELEIN), 100%; in [2] it was 100%; in [3], 90%. For the same compound, the values for the pest or weed control at 500 g/ha in test [4], in [5] and in test [6] were 90%, 90% and 30%, respectively.

As to `C#CCNC(=O)c1cc[n+](CCS(=O)(=O)[O-])nc1` [Compound A16], the pest or weed control at 500 g/ha in the test with Lolium perenne (LOLPE) was 60%; in the test with Setaria faberi (SETFA), 70%; in [1] it was 100%; in the test on Eleusine indica (ELEIN), 90%; in [2] it was 90%; in [3] it was 90%. In addition, the pest or weed control at 500 g/ha in [4] was 80%; in [5], 70%; in test [6], 80%.

As to `C#CCNC(=O)c1cc[n+](CCC(=O)O)nc1` [Compound A17], the pest or weed control at 500 g/ha with Lolium perenne (LOLPE) worked out at 70%; in the test on Setaria faberi (SETFA), 90%; in test [1], 100%; in the test with Eleusine indica (ELEIN) it was 100%; in test [2], 100%; in [3], 90%. In addition, the pest or weed control at 500 g/ha in test [4] is 90%; in [5] it was 100%; in [6] it was 100%.

Turning to `C=CCNC(=O)c1cc[n+](CCS(=O)(=O)[O-])nc1` [Compound A18], the pest or weed control at 500 g/ha in the test on Lolium perenne (LOLPE) stood at 70%; in the test with Setaria faberi (SETFA), 50%; in test [1], 100%; in the test with Eleusine indica (ELEIN), 90%; in test [2], 90%; in [3], 90%. Also, the figures for the pest or weed control at 500 g/ha in [4], in [5] and in test [6] were 70%, 80% and 70%, respectively.

In the case of `C=CCNC(=O)c1cc[n+](CCC(=O)O)nc1` [Compound A19], the pest or weed control at 500 g/ha in the test on Lolium perenne (LOLPE) came to 80%; in the test on Setaria faberi (SETFA) it was 80%; in test [1], 100%; in the test on Eleusine indica (ELEIN), 90%; in test [2] it was 90%; in test [3], 80%. In addition, the pest or weed control at 500 g/ha is 90% in [4], 100% in test [5] and 70% in test [6].

As for `O=C(NCc1ccccc1)c1cc[n+](CCS(=O)(=O)[O-])nc1` [Compound A20], the pest or weed control at 500 g/ha with Lolium perenne (LOLPE) is 30%; in the test on Setaria faberi (SETFA), 90%; in test [1], 100%; in the test on Eleusine indica (ELEIN) it was 80%; in test [2] it was 100%; in [3], 60%. The pest or weed control at 500 g/ha was determined as 80% in test [4], 60% in test [5] and 50% in test [6].

Consider `O=C(O)CC[n+]1ccc(C(=O)NCc2ccccc2)cn1` [Compound A21], for which the pest or weed control at 500 g/ha amounted to 40% with Lolium perenne (LOLPE); 60% in the test with Setaria faberi (SETFA); 90% in test [1]; 90% in the test on Eleusine indica (ELEIN); 90% in test [2]; 90% in test [3]. Further, the pest or weed control at 500 g/ha in [4] was found to be 90%; in test [5], 70%; in test [6], 60%.

The values are drawn from patent publication US20210403435A1, “HERBICIDAL COMPOUNDS” (SYNGENTA CROP PROTECTION AG, priority 2018, published 2021).
